Measurements as given in patent US20190201430A1, “TREATING OCULAR NEOVASCULARIZATION” (Massachusetts Eye and Ear Infirmary, priority 2014, published 2019).
Counter-ions that a name gives are not always drawn.

Tests used:
endothelial cells = settings: in the absence of VEGF; cited from earlier work
caveolin-1 [1] = test: Western blotting of H2O2 induced caveolin-1 phosphorylation in HUVEC; assay type: cell-based, human; settings: for effect of inhibitor pretreatment on the inhibitory effect of AICAR on H2O2 induced caveolin-1 phosphorylation: DPY 8 μM or IODO 0.4 μM 1 h, AICAR 2 mM 2 h, H2O2 2 mM 30 min, FIG. 2
Method: (§1) HUVECs (Lonza, Walkersville, Md.) were cultured in Endothelial Growth Medium (EGM, Lonza, Walkersville, Md.). For all experiments, cells were grown at 37° C. in a humidified atmosphere of 5% CO2 and 95% air. Experiments were performed on cells below passage 3 to 6 grown to 80-90% confluence.
(§2) Protein extraction and western blotting were carried out as described previously (Morizane et al. JBC). Densitometric analysis of bands was performed using ImageJ software. Lane-loading differences were normalized by β-actin.
(§3) Cells were transfected with siRNAs using Nucleofection kit (Amaxa Biosysteins, Gaithersburg, Md.), following the manufacturer's protocol. The medium was changed at 6 h after transfection. The down-regulation of each protein was evaluated at 3 days after nucleofection.

AMPK [2] = test: Western blotting of AMPK phosphorylation in HUVECs (Example 2); assay type: cell-based, human
Method: (§4) Human umbilical vein endothelial cells (HUVECs) were cultured in endothelial growth medium (EGM, Lonza, Walkersville, Md.). Normal human dermal fibroblasts (NHDFs) were cultured in fibroblast basal medium (ATCC, Rockville, Md.). Cells were grown at 37° C. in a humidified atmosphere of 95% air, 5% CO2. Experiments were performed on cells below passage 3 to 6 grown to 80%-90% confluence.
(§5) Protein extraction and Western blotting were carried out as described previously (Morizane et al. JBC (26)). We conducted a densitometric analysis of bands using ImageJ software. Lane-loading differences were normalized by β-actin.

AMPK [3] = test: Western blotting of AMPK phosphorylation in HUVEC (Example 1); assay type: cell-based, human; settings: DPY or IODO 1 h, then AICAR 2 mM 2 h, FIG. 2B,F
Method: as §1, §2

c-Abl [4] = test: Western blotting of H2O2 induced c-Abl phosphorylation in HUVEC; assay type: cell-based, human; settings: DPY 8 μM or IODO 0.4 μM 1 h, AICAR 2 mM 2 h, H2O2 2 mM 30 min; FIG. 2
Method: as §1, §2, §3

caveolin-1 [5] = test: Western blotting of VEGF induced caveolin-1 phosphorylation in HUVECs; assay type: cell-based, human
Method: as §4, §5
(§6) Cells were transfected with siRNAs using a Nucleofection kit (Amaxa Biosystems, Gaithersburg, Md.), following the manufacturer's protocol. The medium was changed 6 h after transfection. The down-regulation of each protein was evaluated 3 days after nucleofection.

prdx1/c-Abl complex [6] = test: Co-immunoprecipitation of prdx1 and c-Abl under H2O2; assay type: cell-based, human; settings: IODO before AICAR and H2O2; FIG. 6D
Method: Immunoprecipitation was performed with the Universal Magnetic Co-IP Kit (Active Motif North America, Carlsbad, Calif.), according to the manufacturer's instruction.
as §3

Akt = test: Western blotting of Akt phosphorylation in HUVECs (VEGF); assay type: cell-based, human
Method: as §4, §5, §6

c-Abl [7] = test: Western blotting of VEGF induced c-Abl phosphorylation in HUVECs; assay type: cell-based, human; settings: IODO 0.4 μM 1 h, AICAR 2 mM 2 h, VEGF 12.5 ng/mL 10 min; FIG. 12D,E
Method: as §4, §5, §6

PTEN = test: Western blotting of PTEN phosphorylation in HUVECs; assay type: cell-based, human; settings: IODO 0.1 μM 60 min, then AICAR 2 mM; FIG. 9A,D
Method: as §4, §5

prdx1/c-Abl complex [8] = test: Co-immunoprecipitation of prdx1 and c-Abl under VEGF; assay type: cell-based, human; settings: AK inhibitor IODO; FIG. 15D,E
Method: Immunoprecipitation was performed with the Universal Magnetic Co-IP Kit (Active Motif North America, Carlsbad, Calif.) according to the manufacturer's instruction.
as §6

[9] = IODO 0.4 μM 1 h, AICAR 2 mM 2 h, VEGF 12.5 ng/mL 10 min, FIG. 12D,E

N#Cc1c(O)c2c(-c3ccc(-c4ccccc4O)cc3)csc2[nH]c1=O [A769662, 4-hydroxy-3-[4-(2-hydroxyphenyl)phenyl]-6-oxo-7H-thieno[2,3-b]pyridine-5-carbonitrile]
endothelial proliferation (endothelial cells): suppressed endothelial proliferation

OCCN(CCO)c1nc(N2CCCCC2)c2nc(N(CCO)CCO)nc(N3CCCCC3)c2n1 [DPY, dipyridamole]
effect of inhibitor pretreatment on the inhibitory effect of AICAR on H2O2 induced caveolin-1 phosphorylation (caveolin-1 [1]): significantly restored | AICAR induced AMPK phosphorylation after DPY pretreatment (AMPK [2]; each concentration of DPY 1 h, then AICAR 2 mM 2 h, FIG. 12B): inhibited AMPK phosphorylation | AICAR induced AMPK phosphorylation after inhibitor pretreatment (AMPK [3]): inhibited AICAR induced AMPK phosphorylation dose-dependently | effect of inhibitor pretreatment on the inhibitory effect of AICAR on H2O2 induced c-Abl phosphorylation (c-Abl [4]): significantly restored

Nc1ncnc2c1c(I)cn2[C@@H]1O[C@H](CO)[C@@H](O)[C@H]1O [IODO, 5-Iodotubericidin]
effect of inhibitor pretreatment on the inhibitory effect of AICAR on H2O2 induced caveolin-1 phosphorylation (caveolin-1 [1]): significantly restored | effect of IODO pretreatment on AICAR induced AMPK phosphorylation (AMPK [2]; IODO 0.1 μM 60 min, then AICAR 2 mM, FIG. 9A,B): suppressed and delayed | effect of IODO on the inhibitory effect of AICAR on VEGF induced caveolin-1 phosphorylation (caveolin-1 [5]; [9]): significantly abolished | prdx1/c-Abl dissociation with IODO prior to H2O2 and AICAR (prdx1/c-Abl complex [6]): restored the dissociation | AICAR induced AMPK phosphorylation after inhibitor pretreatment (AMPK [3]): inhibited AICAR induced AMPK phosphorylation dose-dependently | effect of IODO pretreatment on AICAR induced Akt dephosphorylation (Akt; IODO 0.1 μM 60 min, then AICAR 2 mM, FIG. 9A,C): suppressed and delayed | effect of IODO on the inhibitory effect of AICAR on VEGF induced Akt phosphorylation (Akt; [9]): significantly abolished | effect of IODO on the inhibitory effect of AICAR on VEGF induced c-Abl phosphorylation (c-Abl [7]): significantly abolished | effect of inhibitor pretreatment on the inhibitory effect of AICAR on H2O2 induced c-Abl phosphorylation (c-Abl [4]): significantly restored | effect of IODO pretreatment on AICAR induced PTEN phosphorylation (PTEN): suppressed and delayed | effect of IODO on AICAR inhibition of VEGF induced prdx1/c-Abl dissociation (prdx1/c-Abl complex [8]): abrogated

Cc1ccc(NC(=O)c2ccc(CN3CCN(C)CC3)cc2)cc1Nc1nccc(-c2cccnc2)n1 [imatinib mesylate, Imatinib mesylate]
H2O2 induced phosphorylation of caveolin-1 (caveolin-1 [1]; HUVEC, imatinib mesylate 10 or 20 uM for 24, 48 or 72 h, then H2O2 2 mM 30 min, FIG. 5A,B): inhibited H2O2 induced phosphorylation of both caveolin-1 and c-Abl dose- and time-dependently | VEGF-induced phosphorylation of caveolin-1 (caveolin-1 [5]; imatinib mesylate 10 or 20 μM for 24, 48 or 72 h, then VEGF 12.5 ng/mL 10 min, FIG. 14A,C): inhibited the VEGF-induced phosphorylation of caveolin-1 and c-Abl in a time and dose dependent manner
